Measurements reported in patent US11945801B2, “Bicyclic aza compounds as muscarinic M1 and/or M4 receptor agonists” (Heptares Therapeutics Limited, priority 2018, dated 2024).
Read-outs that look alike come from different tables or passages of the source.

Legend:
Format in all cases: cell-based
[1] = target: T1, human muscarinic M1 receptor (Homo sapiens, UniProt P11229); experiment: Alphascreen Surefire phospho-ERK1/2 functional assay, M1; conditions: for EC50: agonist 5 min, 37° C.; for Emax: CHO
T1 sequence (P11229 1-460): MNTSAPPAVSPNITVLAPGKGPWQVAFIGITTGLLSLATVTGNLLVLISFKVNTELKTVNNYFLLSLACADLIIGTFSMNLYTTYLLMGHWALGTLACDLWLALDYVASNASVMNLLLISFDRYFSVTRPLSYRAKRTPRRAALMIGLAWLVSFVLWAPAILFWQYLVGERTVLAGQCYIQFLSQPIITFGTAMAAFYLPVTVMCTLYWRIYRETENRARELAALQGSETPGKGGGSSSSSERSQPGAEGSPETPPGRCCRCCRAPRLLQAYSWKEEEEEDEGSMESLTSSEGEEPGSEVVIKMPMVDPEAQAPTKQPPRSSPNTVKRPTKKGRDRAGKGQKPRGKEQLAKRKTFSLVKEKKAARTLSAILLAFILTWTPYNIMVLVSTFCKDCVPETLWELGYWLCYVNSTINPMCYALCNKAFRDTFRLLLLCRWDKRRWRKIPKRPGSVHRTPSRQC
Protocol: (§1) ERK1/2 phosphorylation is a downstream consequence of both Gq/11 and Gi/o protein coupled receptor activation, making it highly suitable for the assessment of M1, M3 (Gq/11 coupled) and M2, M4 receptors (Gi/o coupled), rather than using different assay formats for different receptor subtypes. CHO cells stably expressing the human muscarinic M1, M2, M3 or M4 receptor were plated (25K/well) onto 96-well tissue culture plates in MEM-alpha+10% dialysed FBS. Once adhered, cells were serum-starved overnight. Agonist stimulation was performed by the addition of 5 μL agonist to the cells for 5 min (37° C.). Media was removed and 50 μL of lysis buffer added. After […], a 4 μL sample was transferred to 384-well plate and 7 μL of detection mixture added.
(§2) Isomer assignment (Isomer 1, Isomer 2, etc.) is based on the retention time of the compound using the separation technique that was performed in the final purification step. By implication, this could be reversed phase HPLC, chiral HPLC or chiral SFC retention time, and this will vary from compound to compound.

[2] = target: T2, human muscarinic M2 receptor (Homo sapiens, UniProt P08172); experiment: Alphascreen Surefire phospho-ERK1/2 functional assay, M2; conditions: for Emax: CHO
T2 sequence (P08172 1-466): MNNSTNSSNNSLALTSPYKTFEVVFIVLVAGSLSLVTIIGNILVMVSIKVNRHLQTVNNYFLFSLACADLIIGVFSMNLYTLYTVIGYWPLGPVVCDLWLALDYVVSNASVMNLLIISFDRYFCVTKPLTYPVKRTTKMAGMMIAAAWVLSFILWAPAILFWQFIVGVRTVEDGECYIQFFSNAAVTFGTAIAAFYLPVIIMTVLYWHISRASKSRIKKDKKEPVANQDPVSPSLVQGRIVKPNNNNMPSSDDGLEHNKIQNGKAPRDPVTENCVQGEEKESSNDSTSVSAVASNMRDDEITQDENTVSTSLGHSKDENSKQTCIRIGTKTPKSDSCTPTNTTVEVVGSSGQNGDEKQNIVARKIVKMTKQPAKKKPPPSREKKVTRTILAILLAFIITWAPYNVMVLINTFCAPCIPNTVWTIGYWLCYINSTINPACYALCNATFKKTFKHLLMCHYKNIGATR
Protocol: as §1, §2

[3] = target: T3, human muscarinic M3 receptor (Homo sapiens, UniProt P20309); experiment: Alphascreen Surefire phospho-ERK1/2 functional assay, M3; conditions: for Emax: CHO
T3 construct: expressed in transfected cells
Protocol: as §1, §2

[4] = target: T4, human muscarinic M4 receptor (Homo sapiens, UniProt P08173); experiment: Alphascreen Surefire phospho-ERK1/2 functional assay, M4; conditions: for EC50 / % Emax cf. ACh, M4: CHO cells stably expressing human M4; for EC50: agonist 5 min, 37° C., read-out: pEC50 M4 (converted); for Emax: CHO
T4 construct: expressed in transfected cells
T4 sequence (P08173 1-479): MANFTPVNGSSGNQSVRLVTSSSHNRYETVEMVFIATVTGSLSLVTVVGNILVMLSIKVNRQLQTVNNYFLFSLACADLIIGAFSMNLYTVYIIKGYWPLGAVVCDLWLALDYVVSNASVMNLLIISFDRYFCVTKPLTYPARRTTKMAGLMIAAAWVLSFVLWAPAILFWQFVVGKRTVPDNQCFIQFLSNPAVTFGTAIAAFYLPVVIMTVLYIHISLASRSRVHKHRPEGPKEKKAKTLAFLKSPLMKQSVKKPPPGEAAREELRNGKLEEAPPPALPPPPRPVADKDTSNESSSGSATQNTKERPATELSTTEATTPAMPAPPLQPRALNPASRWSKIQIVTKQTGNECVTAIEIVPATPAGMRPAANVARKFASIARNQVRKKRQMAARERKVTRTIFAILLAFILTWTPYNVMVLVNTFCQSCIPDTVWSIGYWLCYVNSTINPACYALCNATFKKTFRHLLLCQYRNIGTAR
Protocol: as §1, §2

[5] = CHO cells stably expressing human M1, read-out: pEC50 M1 (converted)
[6] = CHO cells stably expressing human M2, agonist 5 min, 37° C., read-out: pEC50 M2 (converted)
[7] = CHO cells stably expressing human M3, agonist 5 min, 37° C., read-out: pEC50 M3 (converted)
[8] = read-out: % Emax cf. ACh, M1, CHO cells stably expressing human M1, Emax relative to ACh
[9] = read-out: % Emax cf. ACh, M2, CHO cells stably expressing human M2, Emax relative to ACh
[10] = read-out: % Emax cf. ACh, M3, CHO cells stably expressing human M3, Emax relative to ACh
[11] = read-out: % Emax cf. ACh, M4, CHO cells stably expressing human M4, Emax relative to ACh

T3 sequence (P20309 whole entry): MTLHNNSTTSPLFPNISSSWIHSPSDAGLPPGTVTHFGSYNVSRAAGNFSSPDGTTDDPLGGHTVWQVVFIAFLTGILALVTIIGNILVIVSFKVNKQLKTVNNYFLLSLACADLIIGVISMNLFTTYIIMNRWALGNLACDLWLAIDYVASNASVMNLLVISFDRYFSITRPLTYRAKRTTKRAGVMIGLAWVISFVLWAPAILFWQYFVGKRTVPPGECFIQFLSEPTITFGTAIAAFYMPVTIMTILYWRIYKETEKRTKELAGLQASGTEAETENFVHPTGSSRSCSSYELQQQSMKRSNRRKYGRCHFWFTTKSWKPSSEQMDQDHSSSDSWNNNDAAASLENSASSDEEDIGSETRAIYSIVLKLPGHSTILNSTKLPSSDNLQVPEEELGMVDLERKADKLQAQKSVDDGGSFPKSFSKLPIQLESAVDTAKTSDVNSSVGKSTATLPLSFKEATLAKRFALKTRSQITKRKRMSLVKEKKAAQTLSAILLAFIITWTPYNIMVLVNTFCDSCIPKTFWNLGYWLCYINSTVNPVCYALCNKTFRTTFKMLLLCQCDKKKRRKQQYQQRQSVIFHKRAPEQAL

Structure (SMILES) | EC50 [1, 5] [nM] | EC50 [2, 6] [nM] | EC50 [3, 7] [nM] | EC50 [4] [nM] | Emax [1, 8] [%] | Emax [2, 9] [%] | Emax [3, 10] [%] | Emax [4, 11] [%] | Emax ([1]; read-out: % Emax cf. ACh, M1) [%] | Emax ([2]; read-out: % Emax cf. ACh, M2) [%] | Emax ([3]; read-out: % Emax cf. ACh, M3) [%] | Emax ([4]; read-out: % Emax cf. ACh, M4) [%] | also measured
CCOC(=O)N1C2CCC1CC(N1CC(CC(=O)N3CCCCC3)C1)C2 (mixture of isomers) [Example 1-4 Isomer mixture, Ethyl-3-(3-(2-oxo-2-(piperidin-1-yl)ethyl)azetidin-1-yl)-8-azabicyclo[3.2.1]octane-8-carboxylate] | 309 | > 20000 | > 20000 | > 20000 | – | – | – | – | 84 | 21 | 6 | 17 | –
CCOC(=O)N1C2CCC1CC(N1CC(OC(=O)N3CCCCCC3)C1)C2 (mixture of isomers) [Example 5-1 Isomer mixture, Ethyl 3-(3-((azepane-1-carbonyl)oxy)azetidin-1-yl)-8-azabicyclo[3.2.1]octane-8-carboxylate] | – | – | – | 427 | – | – | – | – | 83 | 18 | 45 | 39 | EC50 ([1]; pEC50 M1, CHO cells stably expressing human M1): 89.1 nM; EC50 [2]: > 20000 nM; EC50 [3]: > 20000 nM
CCOC(=O)N1C2CCC1CC(N1CC(CC(=O)N(CC)CC)C1)C2 (single isomer, unassigned) [Example 1-1 Isomer 2, Ethyl-3-(3-(2-(diethylamino)-2-oxoethyl)azetidin-1-yl)-8-azabicyclo[3.2.1]octane-8-carboxylate] | 316 | 1260 | > 20000 | 200 | – | – | – | – | 100 | 58 | 28 | 85 | –
CCOC(=O)N1C2CCCC1CC(N1CC(CC(=O)N3CCCCC3)C1)C2 (single isomer, unassigned) [Example 3-3 Isomer 1, Ethyl-3-(3-(2-oxo-2-(piperidin-1-yl)ethyl)azetidin-1-yl)-9-azabicyclo[3.3.1]nonane-9-carboxylate] | 316 | > 20000 | > 20000 | 1290 | – | – | – | – | 117 | 5 | 9 | 55 | –
CCOC(=O)N1CCC2(CC(N3CC(OC(=O)N(CC)CC)C3)C2)C1 (single isomer, unassigned) [Example 4-2 Isomer 2, Ethyl 2-(3-((diethylcarbamoyl)oxy)azetidin-1-yl)-6-azaspiro[3.4]octane-6-carboxylate] | 158 | > 20000 | > 20000 | 282 | 105 | 14 | 17 | 89 | – | – | – | – | –
CCOC(=O)N1CC2(CCC(N3CC(OC(=O)N(C)CC)C3)C2)C1 (single isomer, unassigned) [Example 4-4 Isomer 1, Ethyl 6-(3-((ethyl(methyl)carbamoyl)oxy)azetidin-1-yl)-2-azaspiro[3.4]octane-2-carboxylate] | 58.9 | > 20000 | > 20000 | 22.9 | 67 | 5 | 0 | 37 | – | – | – | – | –
CCOC(=O)N1CC2(CCC(N3CC(OC(=O)N(CC)CC)C3)C2)C1 (single isomer, unassigned) [Example 4-5 Isomer 1, Ethyl 6-(3-((diethylcarbamoyl)oxy)azetidin-1-yl)-2-azaspiro[3.4]octane-2-carboxylate] | 15.8 | > 20000 | > 20000 | 33.1 | – | 6 | 54 | – | – | – | – | – | % Emax cf. ACh, M1 ([1]; CHO cells stably expressing human M1, Emax relative to ACh, listed as 4-5 Isomer 1): 66%; % Emax cf. ACh, M4 ([4]; Emax relative to ACh, listed as 4-5 Isomer 1): 31%

The next lines start with results.

EC50 [1, 5] [nM] | EC50 [2, 6] [nM] | EC50 [3, 7] [nM] | EC50 [4] [nM] | Emax [1, 8] [%] | Emax [2, 9] [%] | Emax [3, 10] [%] | Emax [4, 11] [%] | Structure (SMILES) | Emax ([1]; read-out: % Emax cf. ACh, M1) [%] | Emax ([2]; read-out: % Emax cf. ACh, M2) [%] | Emax ([3]; read-out: % Emax cf. ACh, M3) [%] | Emax ([4]; read-out: % Emax cf. ACh, M4) [%] | also measured
209 | > 20000 | > 20000 | > 20000 | 67 | 13 | 6 | 9 | CCOC(=O)N1CC2CCC1CC2N1CC(CC(=O)N(CC)CC)C1 (single isomer, unassigned) [Example 2-1 Isomer 1, Ethyl-5-(3-(2-(diethylamino)-2-oxoethyl)azetidin-1-yl)-2-azabicyclo[2.2.2]octane-2-carboxylate] | – | – | – | – | –
19.1 | > 20000 | > 20000 | 257 | – | 8 | 12 | 36 | CCOC(=O)N1CC2CCC1CC2N1CC(CC(=O)N(CC)C(C)C)C1 (single isomer, unassigned) [Example 2-2 Isomer 1, Ethyl-5-(3-(2-(ethyl(isopropyl)amino)-2-oxoethyl)azetidin-1-yl)-2-azabicyclo[2.2.2]octane-2-carboxylate] | – | – | – | – | % Emax cf. ACh, M1 ([1]; CHO cells stably expressing human M1, Emax relative to ACh, listed as 2-2 Isomer 1): 95%
229 | – | – | > 20000 | – | – | – | – | CCOC(=O)N1CC2CCC1CC2N1CC(CC(=O)N(CC)C(C)C)C1 (single isomer, unassigned) [Example 2-2 Isomer 2, Ethyl-5-(3-(2-(ethyl(isopropyl)amino)-2-oxoethyl)azetidin-1-yl)-2-azabicyclo[2.2.2]octane-2-carboxylate] | – | – | – | – | % Emax cf. ACh, M1 ([1]; CHO cells stably expressing human M1, Emax relative to ACh, listed as 2-2 Isomer 2): 65%; % Emax cf. ACh, M2 ([2]; CHO cells stably expressing human M2, Emax relative to ACh): 6%; % Emax cf. ACh, M3 ([3]; CHO cells stably expressing human M3, Emax relative to ACh): 7%; % Emax cf. ACh, M4 ([4]; Emax relative to ACh): 31%
204 | > 20000 | > 20000 | 6460 | 88 | 10 | 9 | 46 | CCOC(=O)N1CC2CCC1CC2N1CC(CC(=O)N2CCCCC2)C1 (single isomer, unassigned) [Example 2-3 Isomer 1, Ethyl-5-(3-(2-oxo-2-(piperidin-1-yl)ethyl)azetidin-1-yl)-2-azabicyclo[2.2.2]octane-2-carboxylate] | – | – | – | – | –
110 | > 20000 | > 20000 | > 20000 | 64 | 53 | 35 | 23 | CCOC(=O)N1CC2CCC1CC2N1CC(CC(=O)N2CCC23CCC3)C1 (single isomer, unassigned) [Example 2-5 Isomer 1, Ethyl-5-(3-(2-oxo-2-(1-azaspiro[3.3]heptan-1-yl)ethyl)azetidin-1-yl)-2-azabicyclo[2.2.2]octane-2-carboxylate] | – | – | – | – | –
